Assay results as given in ChEMBL document CHEMBL1201862, “PubChem BioAssay data set” (2004).
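Each compound was tested at five concentrations against cells in 96-well plates for 48 hours. At the GI50, growth is halved.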 Activity calls are given as the source filed them. No stated cut-off is given here; in the data, active = GI50 up to about 1.1 µM and inactive = higher.

Key:
Assay in all cases: NCI-60 cell line screen, 48 h
786-0 = test system: 786-0
A549 = test system: A549
BT-549 = test system: BT-549
EKVX = test system: EKVX
IGROV-1 = test system: IGROV-1
MCF7 = test system: MCF7
MDA-MB-435 = test system: MDA-MB-435
MDA-N = test system: MDA-N
MOLT-4 = test system: MOLT-4
OVCAR-5 = test system: OVCAR-5
SF-539 = test system: SF-539
SK-MEL-28 = test system: SK-MEL-28
SK-OV-3 = test system: SK-OV-3
SW-620 = test system: SW-620
TK-10 = test system: TK-10
UO-31 = test system: UO-31
CCRF-CEM = test system: CCRF-CEM
OVCAR-3 = test system: OVCAR-3
HL-60 = test system: HL-60
K562 = test system: K562

Measured: GI50

Oc1cc(/C=C/c2ccccc2)nc2cc3c(cc12)OCO3
inactive: 786-0 3.32 µM | A549 4.95 µM | BT-549 5.73 µM | EKVX 6.12 µM | IGROV-1 4.56 µM | MCF7 4.85 µM | MDA-MB-435 1.98 µM | MDA-N 2.03 µM | MOLT-4 2.71 µM | OVCAR-5 3.54 µM | SF-539 2.08 µM | SK-MEL-28 8.65 µM | SK-OV-3 4.63 µM | SW-620 6.37 µM | TK-10 10.7 µM | UO-31 6.01 µM

CCNc1ccc2c(c1)C(=O)N(OS(C)(=O)=O)C2=O
inactive: 786-0 34.1 µM | A549 > 100 µM | BT-549 71.4 µM | CCRF-CEM 32.1 µM | EKVX 62.7 µM | MCF7 33.6 µM | MDA-MB-435 > 100 µM | MDA-N 89.7 µM | OVCAR-3 40.7 µM | SF-539 22.4 µM | SK-MEL-28 57.5 µM | SK-OV-3 > 100 µM | SW-620 37.6 µM | TK-10 > 100 µM | UO-31 62.5 µM

CCOC(=O)c1c(SCCN2CCCCC2)n(-c2ccccc2)c(=S)n(-c2ccccc2)c1=O
inactive: 786-0 14.8 µM | A549 > 54 µM | BT-549 16.6 µM | CCRF-CEM 2.99 µM | HL-60 3.49 µM | IGROV-1 > 10 µM | K562 3 µM | MCF7 5.85 µM | MDA-MB-435 16.3 µM | MDA-N 18.5 µM | MOLT-4 2.28 µM | OVCAR-3 9.57 µM | OVCAR-5 > 100 µM | SK-MEL-28 8.85 µM | SK-OV-3 36.2 µM | SW-620 3.79 µM | TK-10 18 µM | UO-31 18.2 µM

C[n+]1ccc2/c(=C\C#N)c3ccccc3n21
inactive: 786-0 52.2 µM | A549 19.1 µM | BT-549 16.6 µM | CCRF-CEM 20 µM | EKVX 24.9 µM | HL-60 17.3 µM | IGROV-1 23.9 µM | K562 61.2 µM | MCF7 20.5 µM | MDA-MB-435 23.3 µM | MDA-N 32.5 µM | MOLT-4 30.8 µM | OVCAR-3 14.6 µM | OVCAR-5 37.3 µM | SK-MEL-28 23.1 µM | SK-OV-3 30.6 µM | SW-620 35.1 µM | TK-10 22 µM | UO-31 > 100 µM

CCN(CC)c1ccc(/C=C/C2=NN(c3cccc(S(=O)(=O)O)c3)C3(C2)SCC(=O)N3c2nc3ccccc3s2)cc1 (stereo unspecified)
inactive: 786-0 63.8 µM | A549 32.7 µM | BT-549 60.1 µM | CCRF-CEM 21.4 µM | EKVX 36 µM | HL-60 24 µM | IGROV-1 41.7 µM | K562 17.7 µM | MCF7 25.6 µM | MDA-MB-435 23.6 µM | MDA-N 39 µM | MOLT-4 22 µM | OVCAR-5 > 100 µM | SF-539 33 µM | SK-MEL-28 80.4 µM | SW-620 42.9 µM | TK-10 23.1 µM | UO-31 29.9 µM

O=C(Cc1ccccc1)NNc1nc(NNC(=O)c2ccncc2)nc(Nc2cccc(Cl)c2)n1
inactive: 786-0 > 10 µM | A549 > 10 µM | BT-549 > 10 µM | CCRF-CEM > 10 µM | EKVX > 10 µM | HL-60 > 10 µM | IGROV-1 > 10 µM | K562 > 10 µM | MCF7 > 10 µM | MDA-N > 10 µM | MOLT-4 > 10 µM | SF-539 > 10 µM | SK-MEL-28 > 10 µM | SK-OV-3 > 10 µM | SW-620 > 10 µM | TK-10 > 10 µM

O=[N+]([O-])c1ccc(CSC2=C(c3ccc(Cl)cc3)S/C(=C3\SC(SCc4ccc([N+](=O)[O-])cc4)=C(c4ccc(Cl)cc4)S3)S2)cc1
inactive: 786-0 > 100 µM | A549 > 100 µM | BT-549 > 100 µM | CCRF-CEM > 100 µM | EKVX > 100 µM | IGROV-1 > 100 µM | K562 > 100 µM | MCF7 > 100 µM | MDA-MB-435 > 100 µM | MDA-N > 100 µM | MOLT-4 > 100 µM | OVCAR-3 > 100 µM | OVCAR-5 > 100 µM | SF-539 > 100 µM | SK-MEL-28 > 100 µM | SK-OV-3 > 100 µM | SW-620 > 100 µM | TK-10 > 100 µM

C[C@H](NC1=CC(=O)C(N[C@@H](C)[C@H](O)c2ccccc2)=CC1=O)[C@H](O)c1ccccc1
inactive: 786-0 > 100 µM | A549 95.3 µM | BT-549 52.8 µM | CCRF-CEM 57.8 µM | EKVX > 100 µM | HL-60 > 100 µM | IGROV-1 > 100 µM | K562 > 100 µM | MDA-MB-435 81.5 µM | MDA-N > 100 µM | MOLT-4 37.2 µM | OVCAR-3 > 100 µM | OVCAR-5 > 100 µM | SF-539 63.8 µM | SK-MEL-28 > 100 µM | SK-OV-3 69 µM | SW-620 > 100 µM | TK-10 55.7 µM | UO-31 64 µM

Clc1ccc(-c2cn3c(nc4ccccc43)c(/C=C/c3ccco3)n2)cc1
inactive: 786-0 30.3 µM | A549 46.6 µM | BT-549 51.4 µM | HL-60 12.5 µM | IGROV-1 30.5 µM | K562 29.8 µM | MCF7 7.85 µM | MDA-MB-435 23.2 µM | MDA-N 72.8 µM | OVCAR-3 34.4 µM | OVCAR-5 > 100 µM | SF-539 71.1 µM | SK-MEL-28 57.9 µM | SK-OV-3 90.2 µM | SW-620 36.8 µM | TK-10 24 µM | UO-31 48.2 µM

COC1OC2COC1(OCc1ccccc1)C1OC(C)(C)OC21 (stereo unspecified)
inactive: 786-0 > 100 µM | A549 > 100 µM | BT-549 > 100 µM | CCRF-CEM > 100 µM | EKVX > 100 µM | IGROV-1 > 100 µM | K562 > 100 µM | MCF7 > 100 µM | MDA-MB-435 > 100 µM | MDA-N > 100 µM | MOLT-4 > 100 µM | OVCAR-3 > 100 µM | OVCAR-5 > 100 µM | SK-MEL-28 > 100 µM | SK-OV-3 > 100 µM | SW-620 > 100 µM | TK-10 > 100 µM | UO-31 > 100 µM

CCCCn1c2c(n(CCCC)c1=[Se])-c1c(n(CCCC)c(=[Se])n1CCCC)S[Se][Se]S2
inactive: 786-0 29.4 µM | A549 20.7 µM | BT-549 27.7 µM | CCRF-CEM 3.78 µM | EKVX 38.5 µM | IGROV-1 7.1 µM | K562 9.84 µM | MCF7 25.4 µM | MDA-MB-435 49.9 µM | MDA-N 33.7 µM | MOLT-4 12.6 µM | OVCAR-3 6.95 µM | OVCAR-5 20.7 µM | SF-539 20.8 µM | SK-MEL-28 39.1 µM | SK-OV-3 24.5 µM | SW-620 6.01 µM | TK-10 5.4 µM | UO-31 14.1 µM

O=C1c2cc(Cc3ccccc3)c(=O)c(Cc3ccccc3)cc2C(=O)c2cc(Cc3ccccc3)c(=O)c(Cc3ccccc3)cc21
inactive: 786-0 > 100 µM | A549 > 100 µM | BT-549 > 100 µM | CCRF-CEM 74.5 µM | EKVX > 100 µM | HL-60 > 100 µM | IGROV-1 > 100 µM | K562 89.9 µM | MCF7 > 100 µM | MDA-MB-435 > 100 µM | MDA-N > 100 µM | MOLT-4 97.3 µM | OVCAR-3 > 100 µM | OVCAR-5 > 100 µM | SF-539 > 100 µM | SK-MEL-28 > 100 µM | SW-620 > 100 µM | TK-10 > 100 µM | UO-31 > 100 µM

CCN(CC)CCCNc1nc2ccccc2[n+]([O-])n1
inactive: 786-0 > 100 µM | A549 > 100 µM | BT-549 > 100 µM | CCRF-CEM > 100 µM | HL-60 > 100 µM | IGROV-1 > 100 µM | K562 > 100 µM | MCF7 50.9 µM | MDA-MB-435 > 100 µM | MDA-N > 100 µM | MOLT-4 > 100 µM | OVCAR-3 > 100 µM | OVCAR-5 > 100 µM | SF-539 > 100 µM | SK-MEL-28 > 100 µM | SW-620 > 100 µM | TK-10 > 100 µM | UO-31 > 100 µM

O=C(/C=C/c1ccc(-c2ccccc2)cc1)NCc1ccc(C(=O)NCCc2ccccc2)cc1
inactive: 786-0 59.2 µM | A549 > 100 µM | BT-549 > 100 µM | CCRF-CEM 18.5 µM | EKVX > 100 µM | IGROV-1 > 100 µM | K562 88.5 µM | MCF7 25.4 µM | MDA-MB-435 > 100 µM | MDA-N > 100 µM | MOLT-4 96.6 µM | OVCAR-3 > 100 µM | OVCAR-5 > 100 µM | SF-539 12.3 µM | SK-MEL-28 > 100 µM | SK-OV-3 > 100 µM | SW-620 > 100 µM | TK-10 > 100 µM | UO-31 > 100 µM

O=C1NC(Cc2c[nH]c3ccccc23)C(=O)N2C(C3CCCCC3)c3[nH]c4ccccc4c3C[C@@H]12 (stereo partly specified)
inactive: 786-0 11.4 µM | A549 10.9 µM | BT-549 14.9 µM | EKVX 16 µM | HL-60 13.4 µM | IGROV-1 13.8 µM | K562 10.8 µM | MCF7 9.08 µM | MDA-MB-435 11 µM | MDA-N 11.1 µM | MOLT-4 5.97 µM | OVCAR-3 2.38 µM | OVCAR-5 20.7 µM | SK-MEL-28 16.4 µM | SW-620 15.7 µM | TK-10 8.15 µM | UO-31 14.1 µM
